We go through 12 molecules from US8247377B2, “Non-steroidal glucocorticoid inhibitors and their use in treating inflammation, allergy and auto-immune conditions” (Glaxo Group Limited, priority 2006, dated 2012).

Assay type in all cases: cell-based
One experiment deals with T1, progesterone receptor (Homo sapiens, UniProt P06401).
T1 construct: expressed in transfected cells; host or cells: CV-1 cells transduced with PRb-BacMam and MMTV-BacMam
T1 sequence (P06401 1-933): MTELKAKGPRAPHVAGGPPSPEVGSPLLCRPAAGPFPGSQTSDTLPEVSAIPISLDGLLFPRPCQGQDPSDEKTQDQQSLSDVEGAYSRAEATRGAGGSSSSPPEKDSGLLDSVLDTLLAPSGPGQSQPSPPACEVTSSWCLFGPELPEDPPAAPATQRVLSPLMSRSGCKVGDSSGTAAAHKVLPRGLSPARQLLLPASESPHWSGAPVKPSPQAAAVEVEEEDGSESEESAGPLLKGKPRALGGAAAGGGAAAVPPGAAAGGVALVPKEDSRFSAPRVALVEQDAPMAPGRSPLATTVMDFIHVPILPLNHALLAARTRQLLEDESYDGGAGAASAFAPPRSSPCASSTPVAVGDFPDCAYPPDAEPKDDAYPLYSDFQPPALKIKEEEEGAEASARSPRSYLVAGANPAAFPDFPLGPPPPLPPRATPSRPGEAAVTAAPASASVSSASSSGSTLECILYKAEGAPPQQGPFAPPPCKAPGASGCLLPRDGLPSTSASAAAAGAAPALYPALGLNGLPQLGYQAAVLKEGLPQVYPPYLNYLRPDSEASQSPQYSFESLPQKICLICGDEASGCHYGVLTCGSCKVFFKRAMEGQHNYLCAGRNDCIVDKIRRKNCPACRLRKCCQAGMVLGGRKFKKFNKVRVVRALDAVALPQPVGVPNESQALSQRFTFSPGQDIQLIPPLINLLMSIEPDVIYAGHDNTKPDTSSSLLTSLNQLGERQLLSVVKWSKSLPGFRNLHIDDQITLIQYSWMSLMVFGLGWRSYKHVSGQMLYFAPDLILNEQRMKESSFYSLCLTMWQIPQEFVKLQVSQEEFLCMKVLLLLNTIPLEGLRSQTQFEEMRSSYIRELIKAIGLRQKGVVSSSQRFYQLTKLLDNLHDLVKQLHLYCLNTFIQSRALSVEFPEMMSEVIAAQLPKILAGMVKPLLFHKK
Description: Assay for progesterone receptor activity (CV-1 cells, PRb-BacMam/MMTV-BacMam). The conditions noted are these: CV-1 cells transduced with PRb-BacMam and MMTV-BacMam; read-out: pEC50 progesterone receptor activity (converted). A digest of the protocol:
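CV-1 cells co-transduced with PRb-BacMam and MMTV-BacMam (10% each), seeded onto compounds in DMEM with 10% serum. After 24 h, luminescence was read with Steadylite. pEC50 values were estimated from dose-response curves.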

A further experiment concerns MMTV promoter. Description: MMTV agonist assay in A549 MMTV cells. The following applies: Homo sapiens, A549, 6 h, >85% = full agonist, >20% and <85% = partial or efficacy selective agonist, read-out: average maximum asymptote in the MMTV agonist assay. The source says: Human lung carcinoma A549 cell line (ECACC No. 86012804) has been stably transfected in house with a plasmid containing a renilla luciferase reporter with an MMTV promoter. Stimulation of the cell line with GR agonists results in intracellular signal transduction and ultimately translocation of GR into the nucleus. This activates the inserted DNA sequence resulting in transcription of the integrated luciferase gene, which is quantified using a light emission. The stably transfected cell line was grown as a monolayer in DMEM supplemented with FCS-HI (10%), Non-essential amino acids (1%), L-Glutamine (2 mM), Pen/Strep (1%) and Geneticin (50 mg/ml).
A 90% confluent T175 flask of A549 MMTV cells was harvested by centrifugation for 5 min at 200 g, resuspended in assay buffer (DMEM supplemented with 10% FCS 2×HI, 2 mM Glutamax, Non essential amino acids and 25 mM HEPES) and diluted to 0.1×10^6/ml. 70 μl of cell solution was dispensed to each well of white Nunc 384-well plates, containing compound at the required concentration. Plates were incubated for 6 h at 37° C., 95% humidity, 5% CO2. Plates were equilibrated to room temperature for 1 h prior to the addition of 10 μl of Renilla substrate to each well of assay plates. The plates were covered to protect the reagents from light, and then incubated at room temperature for approximately 15 mins before reading them on a Viewlux. Dose response curves were constructed from which pEC50 and maximum asymptote values were estimated.

The next experiment concerns NFκB. Kind of experiment: NFκB agonist assay in A549 SPAP cells.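 As to average maximum asymptote in the NFkB assay: maximum inhibition of the TNFα-induced NFκB-driven signal.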 The following applies: Homo sapiens; for Emax: A549, A549 SPAP cells, >85% = full agonist, ≧20% = partial or full agonist, read-out: average maximum asymptote in the NFkB assay; for IC50: A549 SPAP cells, TNFα 3.2 ng/ml, read-out: pIC50 for the NFkB assay (converted). A digest of the protocol: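 A549 cells stably carrying an ELAM/NFκB-driven SPAP reporter were pre-incubated 1 h at 37° C with compound, then stimulated with TNFα (3.2 ng/ml final) for 15 h. SPAP activity read colorimetrically with pNPP at 405 nm after ~1 h; pIC50 estimated from dose-response curves.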

For the molecule `Nc1c(C(=O)NCC(O)(CNC(=O)c2c(C(F)(F)F)cccc2C(F)(F)F)C(F)(F)F)cnn1-c1ccc(F)cc1` (racemic) [Example 15 (racemic), 5-amino-N-{2-[({[2,6-bis(trifluoromethyl)phenyl]carbonyl}amino)methyl]-3,3,3-trifluoro-2-hydroxypropyl}-1-(4-fluorophenyl)-1H-pyrazole-4-carboxamide], the EC50 at progesterone receptor was over 1 µM. The Emax with MMTV promoter lay within 20 to 85%. Also, in the experiment on NFκB, the Emax was at least 20% and the IC50 is under 1 µM.

On to `CN(CC(O)(CNC(=O)c1cnn(-c2ccc(F)cc2)c1N)C(F)(F)F)C(=O)c1c(Cl)cccc1Br` (racemic) [Example 16 (racemic), 5-amino-N-(2-{[[(2-bromo-6-chlorophenyl)carbonyl](methyl)amino]methyl}-3,3,3-trifluoro-2-hydroxypropyl)-1-(4-fluorophenyl)-1H-pyrazole-4-carboxamide], for which the EC50 at progesterone receptor is over 1 µM. Besides, the Emax with MMTV promoter and with NFκB was over 85% each time. Also, the IC50 in the experiment on NFκB was under 1 µM.

In the case of `Nc1c(C(=O)NCC(O)(CN(CCF)C(=O)c2c(F)cccc2F)C(F)(F)F)cnn1-c1ccc(F)cc1` (racemic) [Example 17 (racemic), 5-amino-N-(2-{[[(2,6-difluorophenyl)carbonyl](2-fluoroethyl)amino]methyl}-3,3,3-trifluoro-2-hydroxypropyl)-1-(4-fluorophenyl)-1H-pyrazole-4-carboxamide], the EC50 on progesterone receptor was over 1 µM. Also, in the experiment on MMTV promoter, the Emax was over 85%. Moreover, in the experiment on NFκB, the Emax is over 85% and the IC50 was under 1 µM.

For `Nc1c(C(=O)NCC(O)(CN(CCF)C(=O)c2c(F)cccc2C(F)(F)F)C(F)(F)F)cnn1-c1ccc(F)cc1` (racemic) [Example 18 (racemic), 5-amino-1-(4-fluorophenyl)-N-{3,3,3-trifluoro-2-[((2-fluoroethyl){[2-fluoro-6-(trifluoromethyl)phenyl]carbonyl}amino)methyl]-2-hydroxypropyl}-1H-pyrazole-4-carboxamide], the EC50 on progesterone receptor is over 1 µM. Further, the Emax in the experiment on MMTV promoter was over 85%. For the same molecule, in the experiment with NFκB, the Emax is over 85% and the IC50 is under 1 µM.

Consider `Nc1c(C(=O)NCC(O)(CNC(=O)c2c(F)cccc2C(F)(F)F)C(F)(F)F)cnn1-c1ccc(F)cc1` (racemic) [Example 19 (racemic), 5-amino-1-(4-fluorophenyl)-N-{3,3,3-trifluoro-2-[({[2-fluoro-6-(trifluoromethyl)phenyl]carbonyl}amino)methyl]-2-hydroxypropyl}-1H-pyrazole-4-carboxamide], for which the EC50 at progesterone receptor was over 1 µM. In addition, the Emax with MMTV promoter was 20 to 85%. Moreover, in the experiment on NFκB, the Emax was at least 20% and the IC50 is under 1 µM.

In the case of `CN(CC(O)(CNC(=O)c1cnn(-c2ccc(F)cc2)c1N)C(F)(F)F)C(=O)c1c(F)cccc1C(F)(F)F` (racemic) [Example 21 (racemic), 5-amino-1-(4-fluorophenyl)-N-(3,3,3-trifluoro-2-{[{[2-fluoro-6-(trifluoromethyl)phenyl]carbonyl}(methyl)amino]methyl}-2-hydroxypropyl)-1H-pyrazole-4-carboxamide], the EC50 at progesterone receptor is over 1 µM. In addition, in the experiment on MMTV promoter, the Emax is over 85%. Further, in the experiment on NFκB, the Emax is over 85% and the IC50 was under 1 µM.

Turning to `CN(CC(O)(CNC(=O)c1cnn(-c2ccc(F)cc2)c1N)C(F)(F)F)C(=O)c1c(C(F)(F)F)cccc1C(F)(F)F` (racemic) [Example 22 (racemic), 5-amino-N-(2-{[{[2,6-bis(trifluoromethyl)phenyl]carbonyl}(methyl)amino]methyl}-3,3,3-trifluoro-2-hydroxypropyl)-1-(4-fluorophenyl)-1H-pyrazole-4-carboxamide], the EC50 on progesterone receptor is over 1 µM. Besides, the Emax in the experiment on MMTV promoter and with NFκB was over 85% in each case. Further, in the experiment on NFκB, the IC50 was under 1 µM.

As for `CCN(CC(O)(CNC(=O)c1cnn(-c2ccc(F)cc2)c1N)C(F)(F)F)C(=O)c1c(F)cccc1C(F)(F)F` (racemic) [Example 23 (racemic), 5-amino-N-{2-[(ethyl{[2-fluoro-6-(trifluoromethyl)phenyl]carbonyl}amino)methyl]-3,3,3-trifluoro-2-hydroxypropyl}-1-(4-fluorophenyl)-1H-pyrazole-4-carboxamide], on progesterone receptor, the EC50 was over 1 µM. Also, the Emax in the experiment on MMTV promoter was over 85%. Moreover, in the experiment with NFκB, the Emax was over 85% and the IC50 is under 1 µM.

In the case of `CCN(CC(O)(CNC(=O)c1cnn(-c2ccc(F)cc2)c1N)C(F)(F)F)C(=O)c1c(Cl)cccc1Br` (racemic) [Example 24 (racemic), 5-amino-N-(2-{[[(2-bromo-6-chlorophenyl)carbonyl](ethyl)amino]methyl}-3,3,3-trifluoro-2-hydroxypropyl)-1-(4-fluorophenyl)-1H-pyrazole-4-carboxamide], at progesterone receptor, the EC50 is over 1 µM. For the same molecule, in the experiment with MMTV promoter, the Emax is over 85%. Besides, in the experiment on NFκB, the Emax is over 85% and the IC50 was under 1 µM.

As to `CCN(CC(O)(CNC(=O)c1cnn(-c2ccc(F)cc2)c1N)C(F)(F)F)C(=O)c1c(Cl)cccc1OC(F)F` (racemic) [Example 25 (racemic), 5-amino-N-(2-{[({2-chloro-6-[(difluoromethyl)oxy]phenyl}carbonyl)(ethyl)amino]methyl}-3,3,3-trifluoro-2-hydroxypropyl)-1-(4-fluorophenyl)-1H-pyrazole-4-carboxamide], at progesterone receptor, the EC50 is over 1 µM. For the same molecule, the Emax in the experiment with MMTV promoter and in the experiment on NFκB was over 85% in each case. Further, the IC50 in the experiment with NFκB was under 1 µM.

`CCN(CC(O)(CNC(=O)c1cnn(-c2ccc(F)cc2)c1N)C(F)(F)F)C(=O)c1c(OC(F)F)cccc1OC(F)F` (racemic) [Example 26 (racemic), 5-amino-N-(2-{[({2,6-bis[(difluoromethyl)oxy]phenyl}carbonyl)(ethyl)amino]methyl}-3,3,3-trifluoro-2-hydroxypropyl)-1-(4-fluorophenyl)-1H-pyrazole-4-carboxamide]: on progesterone receptor, the EC50 is over 1 µM. The Emax in the experiment with MMTV promoter and with NFκB was over 85% throughout. In addition, the IC50 with NFκB was under 1 µM.

Consider `CCN(CC(O)(CNC(=O)c1cnn(-c2ccc(F)cc2)c1N)C(F)(F)F)C(=O)c1c(C(F)(F)F)cccc1C(F)(F)F` (racemic) [Example 27 (racemic), 5-amino-N-(2-{[{[2,6-bis(trifluoromethyl)phenyl]carbonyl}(ethyl)amino]methyl}-3,3,3-trifluoro-2-hydroxypropyl)-1-(4-fluorophenyl)-1H-pyrazole-4-carboxamide], for which the EC50 on progesterone receptor was over 1 µM. The Emax in the experiment on MMTV promoter is over 85%. For the same molecule, in the experiment with NFκB, the Emax is over 85% and the IC50 is under 1 µM.
